In the series the test system is CCRIS mutagenicity, Ames/micronucleus/aberration tests. Put plainly: CCRIS mutagenicity studies.
[1] abbreviates: Test System: AMES SALMONELLA TYPHIMURIUM, Strain/Indicator: TA98, Metabolic Activation: NONE, Method: PREINCUBATION
The mark [2] stands for this setting: Test System: AMES SALMONELLA TYPHIMURIUM, Strain/Indicator: TA100, Metabolic Activation: NONE, Method: PREINCUBATION
Setting [3] is: Test System: AMES SALMONELLA TYPHIMURIUM, Strain/Indicator: TA98, Metabolic Activation: NONE, Method: STANDARD PLATE.
Setting [4] is: Test System: AMES SALMONELLA TYPHIMURIUM, Strain/Indicator: TA98, Metabolic Activation: RAT, LIVER, S-9, AROCLOR 1254, Method: STANDARD PLATE.
[5] abbreviates: Test System: AMES SALMONELLA TYPHIMURIUM, Strain/Indicator: TA100, Metabolic Activation: NONE, Method: STANDARD PLATE.
Setting [6] is: Test System: AMES SALMONELLA TYPHIMURIUM, Strain/Indicator: TA100, Metabolic Activation: RAT, LIVER, S-9, AROCLOR 1254, Method: STANDARD PLATE.

Molecules are shown by their SMILES. Activity calls are given as the source filed them. No rule for the calls is given here.

Data on seven compounds can be found in PubChem BioAssay AID1259407 (Chemical Carcinogenesis Research Information System (CCRIS), 2018).

Take `CC(C)(C)OOC(C)(C)CCC(C)(C)OOC(C)(C)C`: the mutagenic call is, setting by setting: (Test System: AMES SALMONELLA TYPHIMURIUM, Strain/Indicator: TA97, Metabolic Activation: HAMSTER, LIVER, S-9, AROCLOR 1254 (10 OR 30%), Method: PREINCUBATION) “inactive; negative”; (Test System: AMES SALMONELLA TYPHIMURIUM, Strain/Indicator: TA97, Metabolic Activation: NONE, Method: PREINCUBATION) “inactive; negative”; (Test System: AMES SALMONELLA TYPHIMURIUM, Strain/Indicator: TA97, Metabolic Activation: RAT, LIVER, S-9, AROCLOR 1254 (10 OR 30%), Method: PREINCUBATION) “inactive; negative”; (Test System: AMES SALMONELLA TYPHIMURIUM, Strain/Indicator: TA98, Metabolic Activation: HAMSTER, LIVER, S-9, AROCLOR 1254 (10 OR 30%), Method: PREINCUBATION) “inactive; negative”; under setting [1], “inactive; negative”; (Test System: AMES SALMONELLA TYPHIMURIUM, Strain/Indicator: TA98, Metabolic Activation: RAT, LIVER, S-9, AROCLOR 1254 (10 OR 30%), Method: PREINCUBATION) “inactive; negative”. Further, the mutagenic call is “inactive; negative” (Test System: AMES SALMONELLA TYPHIMURIUM, Strain/Indicator: TA100, Metabolic Activation: HAMSTER, LIVER, S-9, AROCLOR 1254 (10 OR 30%), Method: PREINCUBATION); “inactive; negative” under setting [2]; “inactive; negative” (Test System: AMES SALMONELLA TYPHIMURIUM, Strain/Indicator: TA100, Metabolic Activation: RAT, LIVER, S-9, AROCLOR 1254 (10 OR 30%), Method: PREINCUBATION); “inactive; negative” (Test System: AMES SALMONELLA TYPHIMURIUM, Strain/Indicator: TA1535, Metabolic Activation: HAMSTER, LIVER, S-9, AROCLOR 1254 (10 OR 30%), Method: PREINCUBATION); “inactive; negative” (Test System: AMES SALMONELLA TYPHIMURIUM, Strain/Indicator: TA1535, Metabolic Activation: NONE, Method: PREINCUBATION); “inactive; negative” (Test System: AMES SALMONELLA TYPHIMURIUM, Strain/Indicator: TA1535, Metabolic Activation: RAT, LIVER, S-9, AROCLOR 1254 (10 OR 30%), Method: PREINCUBATION).

With `O=C(CBr)c1ccccc1`, the mutagenic call by setting is: (Test System: AMES SALMONELLA TYPHIMURIUM, Strain/Indicator: TA98, Metabolic Activation: HAMSTER, LIVER, S-9, AROCLOR 1254, Method: STANDARD PLATE) “inactive; negative”; under setting [1], “inactive; negative”; under setting [3], “inactive; negative”; under setting [4], “inactive; negative”; (Test System: AMES SALMONELLA TYPHIMURIUM, Strain/Indicator: TA98, Metabolic Activation: RAT, LIVER, S-9, PCB, Method: PREINCUBATION) “inactive; negative”; (Test System: AMES SALMONELLA TYPHIMURIUM, Strain/Indicator: TA100, Metabolic Activation: HAMSTER, LIVER, S-9, AROCLOR 1254, Method: STANDARD PLATE) “inactive; negative”. For the same compound, the mutagenic call reads like this: under setting [2], “inactive; negative”; under setting [5], “inactive; negative”; under setting [6], “inactive; negative”; (Test System: AMES SALMONELLA TYPHIMURIUM, Strain/Indicator: TA100, Metabolic Activation: RAT, LIVER, S-9, PCB, Method: PREINCUBATION) “inactive; negative”; (Test System: AMES SALMONELLA TYPHIMURIUM, Strain/Indicator: TA1535, Metabolic Activation: HAMSTER, LIVER, S-9, AROCLOR 1254, Method: STANDARD PLATE) “inactive; negative”; (Test System: AMES SALMONELLA TYPHIMURIUM, Strain/Indicator: TA1535, Metabolic Activation: NONE, Method: STANDARD PLATE) “inactive; negative”. Further, the mutagenic call (Test System: AMES SALMONELLA TYPHIMURIUM, Strain/Indicator: TA1535, Metabolic Activation: RAT, LIVER, S-9, AROCLOR 1254, Method: STANDARD PLATE) is “inactive; negative”; the mutagenic call (Test System: AMES SALMONELLA TYPHIMURIUM, Strain/Indicator: TA1537, Metabolic Activation: HAMSTER, LIVER, S-9, AROCLOR 1254, Method: STANDARD PLATE) is “inactive; negative”; the mutagenic call (Test System: AMES SALMONELLA TYPHIMURIUM, Strain/Indicator: TA1537, Metabolic Activation: NONE, Method: STANDARD PLATE) is “inactive; negative”; the mutagenic call (Test System: AMES SALMONELLA TYPHIMURIUM, Strain/Indicator: TA1537, Metabolic Activation: RAT, LIVER, S-9, AROCLOR 1254, Method: STANDARD PLATE) is “inactive; negative”; the mutagenic call (Test System: AMES SALMONELLA TYPHIMURIUM, Strain/Indicator: TA1538, Metabolic Activation: HAMSTER, LIVER, S-9, AROCLOR 1254, Method: STANDARD PLATE) was “inactive; negative”; the mutagenic call (Test System: AMES SALMONELLA TYPHIMURIUM, Strain/Indicator: TA1538, Metabolic Activation: NONE, Method: STANDARD PLATE) is “inactive; negative”. Further, the mutagenic call reads like this: (Test System: AMES SALMONELLA TYPHIMURIUM, Strain/Indicator: TA1538, Metabolic Activation: RAT, LIVER, S-9, AROCLOR 1254, Method: STANDARD PLATE) “inactive; negative”; (Test System: E. COLI, Strain/Indicator: WP2 UVRA, Metabolic Activation: NONE, Method: PREINCUBATION) “inactive; negative”; (Test System: MOUSE LYMPHOMA, Strain/Indicator: L5178Y (TK+/TK-), Metabolic Activation: NONE, Method: SUSPENSION/PLATE) “inactive; negative. reevaluation of results: negative”; (Test System: MOUSE LYMPHOMA, Strain/Indicator: L5178Y (TK+/TK-), Metabolic Activation: RAT, LIVER, S-9, AROCLOR 1254, Method: SUSPENSION/PLATE) “active; positive. reevaluation of results: inconclusive”.

With `O=[N+]([O-])c1ccc(/C=C/c2cccc([N+](=O)[O-])c2)cc1`, the mutagenic call is, setting by setting: (Test System: AMES SALMONELLA TYPHIMURIUM, Strain/Indicator: TA98 (NR), Metabolic Activation: NONE, Method: STANDARD PLATE) “active; positive”; (Test System: AMES SALMONELLA TYPHIMURIUM, Strain/Indicator: TA98 (NR), Metabolic Activation: S-9, Method: STANDARD PLATE) “inactive; negative”; under setting [3], “active; positive”; (Test System: AMES SALMONELLA TYPHIMURIUM, Strain/Indicator: TA98, Metabolic Activation: S-9, Method: STANDARD PLATE) “active; positive”; (Test System: AMES SALMONELLA TYPHIMURIUM, Strain/Indicator: TA100 (NR), Metabolic Activation: NONE, Method: STANDARD PLATE) “inactive; negative”; (Test System: AMES SALMONELLA TYPHIMURIUM, Strain/Indicator: TA100 (NR), Metabolic Activation: S-9, Method: STANDARD PLATE) “inactive; negative”. Moreover, the mutagenic call runs as follows: under setting [5], “active; positive”; (Test System: AMES SALMONELLA TYPHIMURIUM, Strain/Indicator: TA100, Metabolic Activation: S-9, Method: STANDARD PLATE) “active; positive”.

`Cc1cc(Cl)ccc1OCCCC(=O)O`: the mutagenic call is “inactive; negative” (Test System: AMES SALMONELLA TYPHIMURIUM, Strain/Indicator: TA97, Metabolic Activation: NONE, Method: STANDARD PLATE); “inactive; negative” (Test System: AMES SALMONELLA TYPHIMURIUM, Strain/Indicator: TA97, Metabolic Activation: RAT, LIVER, S-9, AROCLOR 1254, Method: STANDARD PLATE); “inactive; negative” under setting [3]; “inactive; negative” under setting [4]; “inactive; negative” under setting [5]; “inactive; negative” under setting [6]. Also, the mutagenic call (Test System: AMES SALMONELLA TYPHIMURIUM, Strain/Indicator: TA102, Metabolic Activation: NONE, Method: STANDARD PLATE) is “inactive; negative” and the mutagenic call (Test System: AMES SALMONELLA TYPHIMURIUM, Strain/Indicator: TA102, Metabolic Activation: RAT, LIVER, S-9, AROCLOR 1254, Method: STANDARD PLATE) was “inactive; negative”.

In the case of `Cc1cc2c(c3ccc4ccccc4c13)[C@H]1O[C@H]1[C@@H](O)[C@@H]2O`, the mutagenic call under setting [2] is “inactive; negative”.

As for `Cc1c(N)nc(C(CC(N)=O)NCC(N)C(N)=O)nc1C(=O)NC(C(=O)NC(C)C(O)C(C)C(=O)NC(C(=O)NCCc1nc(-c2nc(C(=O)NCCCCN(CCCCN=C(N)N)C(=N)N)cs2)cs1)C(C)O)C(OC1OC(CO)C(O)C(O)C1OC1OC(CO)C(O)C(OC(N)=O)C1O)c1cnc[nH]1` (stereo not given), the mutagenic call (Test System: AMES SALMONELLA TYPHIMURIUM, Strain/Indicator: TA102, Metabolic Activation: NONE, Method: PREINCUBATION) is “active; positive”.

Take `O[C@H]1[C@H]2O[C@H]2c2c(ccc3cc4ccc5ccccc5c4nc23)[C@@H]1O`: the mutagenic call under setting [1] was “active; positive”; the mutagenic call under setting [2] is “active; positive”; the mutagenic call (Test System: CHINESE HAMSTER V-79, Strain/Indicator: V-79/8-AZAGUANINE, Metabolic Activation: NONE, Method: STANDARD PLATE) is “active; positive”.
